Test results taken from the NIST ThermoML archive (doi:10.1021/je5007532).

Experiment: xn = mol fraction of the nth substance listed
Details: for viscosity: 100 kPa, Falling or rolling sphere viscometry; for viscosity / speed of sound / mass density: Liquid; for speed of sound / mass density: 101 kPa; for speed of sound: Sing-around technique in a fixed-path interferometer; for mass density: Vibrating tube method; for surface tension liquid-gas: 294.4 K, Pendant drop shape

CC(C)CC(C)(C)C [2,2,4-trimethylpentane] + CCCCCCC
Details	mass density [kg/m3]	speed of sound [m/s]	viscosity [mPa·s]
293.15 K, x1 = 0.1	684.83	1146.5	0.416
293.15 K, x1 = 0.2001	685.71	1141.7	0.423
293.15 K, x1 = 0.2999	686.59	1136.6	0.43
293.15 K, x1 = 0.4001	687.45	1131.6	0.438
293.15 K, x1 = 0.5001	688.28	1127	0.447
293.15 K, x1 = 0.6	689.06	1122	0.456
293.15 K, x1 = 0.6999	689.77	1117.2	0.466
293.15 K, x1 = 0.8	690.5	1112.5	0.477
293.15 K, x1 = 0.9	691.17	1107.7	0.488
293.15 K, x1 = 1	691.84	1103.2	0.501
298.15 K, x1 = 0.1	680.61	1125.3	0.394
298.15 K, x1 = 0.2001	681.5	1120.5	0.4
298.15 K, x1 = 0.2999	682.4	1115.5	0.407
298.15 K, x1 = 0.4001	683.27	1110.5	0.415
298.15 K, x1 = 0.5001	684.12	1105.9	0.423
298.15 K, x1 = 0.6	684.91	1101	0.432
298.15 K, x1 = 0.6999	685.63	1096.2	0.441
298.15 K, x1 = 0.8	686.36	1091.6	0.451
298.15 K, x1 = 0.9	687.05	1086.7	0.462
298.15 K, x1 = 1	687.7	1082	0.473
303.15 K, x1 = 0.1	676.36	1103.9	0.373
303.15 K, x1 = 0.2001	677.27	1099.2	0.379
303.15 K, x1 = 0.2999	678.18	1094.2	0.386
303.15 K, x1 = 0.4001	679.07	1089.3	0.393
303.15 K, x1 = 0.5001	679.93	1084.7	0.4
303.15 K, x1 = 0.6	680.73	1079.9	0.408
303.15 K, x1 = 0.6999	681.46	1075.1	0.417
303.15 K, x1 = 0.8	682.2	1070.5	0.426
303.15 K, x1 = 0.9	682.89	1065.8	0.436
303.15 K, x1 = 1	683.59	1061.4	0.447
308.15 K, x1 = 0.1	672.09	1082.7	0.355
308.15 K, x1 = 0.2001	673.01	1078	0.36
308.15 K, x1 = 0.2999	673.93	1073.1	0.366
308.15 K, x1 = 0.4001	674.83	1068.2	0.373
308.15 K, x1 = 0.5001	675.71	1063.7	0.38
308.15 K, x1 = 0.6	676.52	1058.9	0.387
308.15 K, x1 = 0.6999	677.26	1054.2	0.396
308.15 K, x1 = 0.8	678.02	1049.7	0.404
308.15 K, x1 = 0.9	678.72	1045	0.413
308.15 K, x1 = 1	679.4	1040.4	0.423
313.15 K, x1 = 0.1	667.78	1061.7	–
313.15 K, x1 = 0.2001	668.71	1057	–
313.15 K, x1 = 0.2999	669.65	1052.2	–
313.15 K, x1 = 0.4001	670.57	1047.3	–
313.15 K, x1 = 0.5001	671.46	1042.8	–
313.15 K, x1 = 0.6	672.28	1038.1	–
313.15 K, x1 = 0.6999	673.03	1033.5	–
313.15 K, x1 = 0.8	–	1029	–
313.15 K, x1 = 0.9	–	1024.3	–
313.15 K, x1 = 1	–	1020	–

Details	surface tension liquid-gas [mN/m]
x1 = 0.1	19.9
x1 = 0.2001	19.7
x1 = 0.2999	19.5
x1 = 0.4001	19.4
x1 = 0.5001	19.2
x1 = 0.6999	19
x1 = 0.8	18.9
x1 = 1	18.7
